Assay results from patent US11850244B2, “Drug delivery systems and methods for treatment of bladder dysfunction or disorder using trospium” (TARIS BIOMEDICAL LLC, priority 2012, dated 2023).
Entries after “also recorded” stand apart in the source; their conditions may differ. Counter-ions that a name gives are not always drawn. One block for each compound: values may come before it.

Legend:
[1] = Antimuscarinic screen in rat bladder perfusion model (plasma, urine and tissue drug levels); conditions: for total recovery: theoretical dose 3.3 mg/day
From the text: The drugs were perfused at varying rates, concentrations, and times. Serial blood and urine samples were taken, and tissues (bladder, ureter, kidney, and prostate) were sampled to determine drug levels and distribution. Tissue histological exams were completed for safety.

urothelium = assay: Intravesical pharmacology screen in rat bladder perfusion model with acetic acid; conditions: for acetic acid induced increased intravesical pressure / inter-contraction intervals compared to the control: 0.05-100 μg/mL intravesical, 0.5% acetic acid; for acetic acid induced increased intravesical pressure: FIGS. 7A-7C; for inter-contraction intervals compared to the control: FIGS. 7D-7F
Method: Intercontraction intervals and intravesical pressure were measured during a control periods and treatment periods.
The rats' bladder catheters were connected to a pressure transducer and syringe-pump to allow perfusion. The bladders were perfused (50 μL/minute) with saline for one hour to obtain stable micturition cycles. The perfusion then was switched to a weak acidic solution sufficient to stimulate the noxious receptors in the urothelium without inducing structural or metabolic damage to the tissue. […] A 45 minute baseline was recorded.
The vehicle or antimuscarinic drugs were administered intravesically at escalating concentrations (see Table 2 for drugs and concentrations used) with acetic acid instillation (50 μL/minute). Each dose was administered for a 30-minute period. The intravesical pressure and intercontraction interval was recorded during the last 30 minutes of the control period (baseline) and during the 30 minutes of each treatment period, with one treatment period corresponding to one dose of drug.

[2] = system: carbachol 30 μM (M1, M2, M3, AChRa2 agonist); conditions: low dose protocol 0.1 and 0.5 μg/mL, intravesical; cited from earlier work
[3] = oral therapeutic doses for 5 days; cited from earlier work
normal bladder activity = conditions: human urine after oral dosing infused into rat bladders; cited from earlier work

- systemic absorption following intravesical administration ([1]; compared among the three drugs): significantly higher systemic absorption
- estimated intravesical absorption ([1]; rat, in vivo): 83 % of the intravesical dose
- total recovery [1]: low total recovery
Compound: CCN(CC)CC#CCOC(=O)C(O)(c1ccccc1)C1CCCCC1 (stereo not drawn) [Oxybutynin, oxybutynin chloride]
- Effective Urine Concentration ([1]; rat, intravesical perfusion): 1 to 10 µg/mL
- acetic acid induced increased intravesical pressure (urothelium): dose dependent reductions
- inter-contraction intervals compared to the control (urothelium): neither of which altered intercontraction interval
- inter-contraction intervals compared to the control (urothelium; listed as oxybutynin hydrochloride): little effect
- intercontraction interval ratio to baseline [2]: performed similarly

Compound: Cc1ccc(O)c([C@H](CCN(C(C)C)C(C)C)c2ccccc2)c1 [Toterodine, tolterodine tartrate]
- Effective Urine Concentration ([1]; rat, intravesical perfusion): 1 to 10 µg/mL
- acetic acid induced increased intravesical pressure (urothelium): dose dependent reductions
- inter-contraction intervals compared to the control (urothelium; listed as tolterodine): neither of which altered intercontraction interval
- inter-contraction intervals compared to the control (urothelium; listed as tolterodine tartrate): little effect

Compound: O=C(O[C@H]1C[C@H]2CC[C@@H](C1)[N+]21CCCC1)C(O)(c1ccccc1)c1ccccc1 [Trospium, trospium chloride]
- urine concentration ([1]; 24-48 hours after exposure): about 150 μg/mL
- urine concentration ([1]; 48-72 hours after exposure): > 125 µg/mL
- Cmax ([1]; rat, in vivo): 0.06 to 0.7 ng/mL
- Effective Urine Concentration ([1]; rat, intravesical perfusion): 1 to 10 µg/mL
- Urine to Plasma Ratio ([1]; rat, intravesical perfusion): 15,380
- total recovery [1]: near the theoretical dose
- acetic acid induced increased intravesical pressure (urothelium): dose dependent reductions
- inter-contraction intervals compared to the control (urothelium; listed as trospium): increase intercontraction interval; also recorded: increased the inter-contraction intervals compared to the control
- inter-contraction intervals compared to the control (urothelium; listed as trospium chloride): kept the inter-contraction intervals closer to the baseline measurement
- urinary retention or significant systemic exposure (urothelium; at intravesical concentration normalizing urothelial sensory function): did not produce urinary retention or significant systemic exposure
- concentration range showing activity (urothelium; intravesical): 0.05 to 100 µg/mL
- active compound excreted in the human's urine [3]: 60-80%
- intercontraction interval ratio to baseline [2]: performed similarly
- effect on bladder capacity and intercontraction interval (normal bladder activity): more positive effect

Compound: dimethindene maleate
- intercontraction interval ratio to baseline [2]: performed similarly
